Experimental data: patent publication US7417156B2, “Orally active, antimalarial, anticancer, artemisinin-derived trioxane dimers” (Johns Hopkins University, priority 2002, dated 2008)

Experiments:
[1] = test system: MOLT-4; settings: for Log10GI50: Leukemia, MOLT-4; for Log10LC50 / Log10TGI50: MOLT-4 (Leukemia); for Log10LC50: LC50: PG=−50; for Log10TGI50: TGI: PG=0; for drug concentration for primary growth inhibition (percentage growth +50): MOLT-4, from dose response curves FIGS. 7a-7i; for concentration for cytotoxicity (percentage growth −50): human, 48 h
Experimental: Growth Inhibition. […] The screening assay is performed on 96-well microtitre plates. Relatively high initial inoculation densities are used, in order to permit measurement of “time-zero” values and to enhance the screen's ability to detect and provide some differentiation between growth inhibition and cytotoxic response parameters. […] The inoculated microtitre plates are pre-incubated for 24 hours at 37° C. prior to drug additions. The five drug dilutions tested routinely range from 10^−4 to 10^−8 molar. Higher or lower concentration ranges may be selected on a non-routine basis if appropriate solubility and/or prior biological information or other screening data so dictate. Duplicate wells are prepared for all concentrations, (concentration is often denoted by placing brackets around a number); “time-zero” and “no drug” controls are also provided for each test. The minimum amount of compound required for a one-time evaluation in the routine screen can be calculated from the knowledge that each test requires a total of approximately 40 ml (0.04 liter) of cell culture medium containing the highest desired drug concentration. […] After a 48 hour incubation (37° C.) with the test compound, the cells are fixed in situ to the bottoms of the microtitre wells by addition of 50 μl of either 50% trichloroacetic acid (for adherent cell lines) or 80% trichloroacetic acid (for settled cell suspension lines), followed by incubation for 60 minutes at 4° C. The cellular protein in each well is assayed using a sulforhodamine B (SRB) stain procedure. Briefly, after discarding the supernatants, the microtitre plates are washed 5 times with deionized water and air-dried. […] Unbound SRB is removed by washing 5 times with 1% acetic acid. […] SRB is a bright pink anionic dye which, in dilute acetic acid, binds electrostatically to the basic amino acids of TCA-fixed cells. Cryopreserved master stocks of all the lines are maintained, and cultures used for screening are replaced from the master stock after no more than twenty passages in the screening laboratory. The cell line panel consists of 60 lines, organized into nine, disease-related subpanels including leukemia, non-small-cell lung cancer, colon, CNS, melanoma, ovarian, renal, prostate and breast cancers.
At this value the increase from time tzero, in the number or mass of cells in the test well is only 50% as much as the corresponding increase in the control well during this period of the experiment, see Table III. A drug effect of this intensity is interpreted as primary growth inhibition.
At this value the number or mass of cells in the well at the end of the experiment equals the number or mass of cells in the well at time tzero, see Table IV. A drug effect of this intensity is regarded as cytostasis.
At this value, the number or mass of cells in the test well at the end of the experiment is half that at time tzero, see Table V. This is interpreted as cytotoxicity.
Dose response curves, shown in the above mentioned Figures, are obtained by exposing various cancer cell lines to compounds having a known concentration ([log10M]), as discussed in detail above, and then plotting the percentage growth of each cell line for each concentration. […] Percentage growth is determined by dividing the number or mass of cells in the test well by the number or mass of cells in a control well. […] As discussed previously, the five drug dilutions routinely tested range from 10^−4 to […].

[2] = test system: OVCAR-5; assay: NCI 60 cell line panel screen (SRB); type: cell-based, human; settings: for Log10LC50: LC50: PG=−50; for Log10GI50: Ovarian Cancer, OVCAR-5
[3] = test system: CAKI-1; assay: NCI 60 cell line panel screen (SRB); type: cell-based, human; settings: CAKI-1 (Renal Cancer); LC50: PG=−50
[4] = test system: CCRF-CEM; assay: NCI 60 cell line panel screen (SRB); type: cell-based, human; settings: for Log10LC50 / Log10TGI50: CCRF-CEM (Leukemia); for Log10LC50: LC50: PG=−50; for Log10TGI50: TGI: PG=0; for Log10GI50: Leukemia, CCRF-CEM
[5] = test system: chloroquine-sensitive P. falciparum (NF54); assay: Antimalarial activity in vitro, [3H]hypoxanthine incorporation; type: cell-based; settings: Plasmodium falciparum, NF54, Table I; NF54 strain; read-out: IC50
[6] = test system: SK-MEL-2; assay: NCI 60 cell line panel screen (SRB); type: cell-based, human; settings: for Log10GI50: Melanoma, SK-MEL-2; for Log10LC50: SK-MEL2 (Melanoma), LC50: PG=−50
[7] = test system: NCI-H522; assay: NCI 60 cell line panel screen (SRB); type: cell-based, human; settings: for Log10TGI50: NCI-H522 (Non-Small Cell Lung Cancer), TGI: PG=0; for Log10LC50: NCI-H-522 (Non-Small Cell Lung Cancer), LC50: PG=−50; for Log10GI50: Non-Small Cell Lung Cancer, NCI-H522
[8] = test system: UACC-257; assay: NCI 60 cell line panel screen (SRB); type: cell-based, human; settings: for Log10GI50: Melanoma, UACC-257; for Log10LC50 / Log10TGI50: UACC-257 (Melanoma); for Log10LC50: LC50: PG=−50; for Log10TGI50: TGI: PG=0
[9] = test system: NCI-H460; assay: NCI 60 cell line panel screen (SRB); type: cell-based, human; settings: for Log10LC50 / Log10TGI50: NCI-H460 (Non-Small Cell Lung Cancer); for Log10LC50: LC50: PG=−50; for Log10TGI50: TGI: PG=0; for Log10GI50: Non-Small Cell Lung Cancer, NCI-H460
[10] = test system: HS 578T; assay: NCI 60 cell line panel screen (SRB); type: cell-based, human
[11] = test system: 786-0; assay: NCI 60 cell line panel screen (SRB); type: cell-based, human; settings: for Log10LC50: LC50: PG=−50; for Log10GI50: Renal Cancer, 786-0
[12] = test system: MCF7; assay: NCI 60 cell line panel screen (SRB); type: cell-based, human; settings: for Log10GI50: Breast Cancer, MCF7; for Log10LC50: LC50: PG=−50
[13] = test system: ACHN; assay: NCI 60 cell line panel screen (SRB); type: cell-based, human; settings: for Log10LC50 / Log10TGI50: ACHN (Renal Cancer); for Log10LC50: LC50: PG=−50; for Log10TGI50: TGI: PG=0
[14] = test system: HCT-15; assay: NCI 60 cell line panel screen (SRB); type: cell-based, human; settings: for Log10GI50: Colon Cancer, HCT-15; for Log10LC50 / Log10TGI50: HCT-15 (Colon Cancer); for Log10LC50: LC50: PG=−50; for Log10TGI50: TGI: PG=0
[15] = test system: HL-60(TB); assay: NCI 60 cell line panel screen (SRB); type: cell-based, human; settings: for Log10LC50: LC50: PG=−50; for Log10GI50: Leukemia, HL-60(TB)
[16] = test system: COLO 205; assay: NCI 60 cell line panel screen (SRB); type: cell-based, human
[17] = test system: SNB-19; assay: NCI 60 cell line panel screen (SRB); type: cell-based, human

Structure (SMILES): C[C@@H]1CC[C@H]2[C@@H](C)C(CC(O)(COC(=O)CCC(=O)O)CC3OC4O[C@]5(C)CC[C@H]6[C@H](C)CC[C@@H]([C@H]3C)C46OO5)OC3O[C@]4(C)CCC1C32OO4 (stereo partly drawn) [Compound 9, tertiary alcohol primary succinate ester]
- Log10GI50 [1]: −5.15
- Log10LC50 [1]: >−4.30 log10M
- Log10TGI50 [1]: >−4.30 log10M
- drug concentration for primary growth inhibition (percentage growth +50) [1]: < 10^−5 molar
- concentration for cytotoxicity (percentage growth −50) [1]: greater than 10^−4 M
- Log10LC50 ([2]; OVCAR-5 (Ovarian Cancer)): >−4.30 log10M
- Log10GI50 [2]: <−8.30
- Log10LC50 [3]: >−4.30 log10M
- Log10LC50 [4]: >−4.30 log10M
- Log10TGI50 [4]: >−4.30 log10M
- Log10GI50 [4]: <−8.30
- IC50 [5]: 3 nM
- Log10GI50 [6]: −4.88
- Log10LC50 [6]: >−4.30 log10M
- Log10TGI50 ([6]; SK-MEL-2 (Melanoma), TGI: PG=0): >−4.30 log10M
- Log10TGI50 [7]: >−4.30 log10M
- Log10LC50 [7]: >−4.30 log10M
- Log10GI50 [7]: −4.91
- Log10GI50 [8]: −4.89
- Log10LC50 [8]: >−4.30 log10M
- Log10TGI50 [8]: >−4.30 log10M
- Log10LC50 [9]: >−4.30 log10M
- Log10TGI50 [9]: >−4.30 log10M
- Log10GI50 [9]: <−8.30
- Log10GI50 ([10]; Breast Cancer, HS 578T): −4.36
- Log10LC50 ([10]; HS 578T (Breast Cancer), LC50: PG=−50): >−4.30 log10M
- Log10TGI50 ([10]; HS 578T (Breast Cancer), TGI: PG=0): >−4.30 log10M
- Log10LC50 ([11]; 786-0 (Renal Cancer)): >−4.30 log10M
- Log10GI50 [11]: <−8.30
- Log10GI50 [12]: <−8.30
- Log10LC50 ([12]; MCF7 (Breast Cancer)): >−4.30 log10M
- Log10TGI50 ([12]; MCF7 (Breast Cancer), TGI: PG=0): >−4.30 log10M
- Log10LC50 [13]: >−4.30 log10M
- Log10TGI50 [13]: −4.74 log10M
- Log10GI50 ([13]; Renal Cancer, ACHN): −6.67
- Log10GI50 [14]: <−8.30
- Log10LC50 [14]: >−4.30 log10M
- Log10TGI50 [14]: −5.01 log10M
- Log10LC50 ([15]; HL-60(TB) (Leukemia)): >−4.30 log10M
- Log10GI50 [15]: <−8.30

Structure (SMILES): CC(=O)O[C@H]1C(=O)[C@@]2(C)[C@H]([C@H](OC(=O)c3ccccc3)[C@]3(O)C[C@H](OC(=O)[C@H](O)[C@@H](NC(=O)c4ccccc4)c4ccccc4)C(C)=C1C3(C)C)[C@]1(OC(C)=O)CO[C@@H]1C[C@@H]2O [Paclitaxel, paclitaxel, reference compound]
- Log10GI50 [1]: −11.07
- Log10LC50 [1]: >−4.00 log10M
- Log10TGI50 [1]: >−4.00 log10M
- drug concentration for primary growth inhibition (percentage growth +50) [1]: 10^−11 molar
- concentration for cytotoxicity (percentage growth −50) [1]: greater than 10^−4 M
- Log10LC50 ([16]; COLO 205 (Colon Cancer), LC50: PG=−50): >−4.41 log10M
- Log10GI50 ([16]; Colon Cancer, COLO 205): −11.07
- Log10GI50 ([17]; CNS Cancer, SNB-19): −8.98
- Log10LC50 ([17]; SNB-19 (CNS Cancer), LC50: PG=−50): >−4.00 log10M
- Log10TGI50 ([17]; SNB-19 (CNS Cancer), TGI: PG=0): >−4.00 log10M
- Log10LC50 ([2]; OVCAR-5 (Ovarian Cancer)): >−4.00 log10M
- Log10TGI50 ([2]; OVCAR-5 (Ovarian Cancer), TGI: PG=0): −4.92 log10M
- Log10GI50 [2]: −9.38
- Log10LC50 [3]: >−4.00 log10M
- Log10LC50 [4]: >−4.00 log10M
- Log10TGI50 [4]: >−4.00 log10M
- Log10GI50 [4]: −11.61
- Log10GI50 [6]: −9.53
- Log10LC50 [6]: >−4.00 log10M
- Log10TGI50 [7]: −11.20 log10M
- Log10LC50 [7]: >−4.00 log10M
- Log10GI50 [7]: <−13.00
- Log10GI50 [8]: −10.30
- Log10LC50 [8]: −4.03 log10M
- Log10TGI50 [8]: −4.52 log10M
- Log10LC50 [9]: >−4.00 log10M
- Log10TGI50 [9]: −4.92 log10M
- Log10GI50 [9]: −12.16
- Log10LC50 ([11]; 786-0 (Renal Cancer)): >−4.00 log10M
- Log10TGI50 ([11]; 786-0 (Renal Cancer), TGI: PG=0): >−4.00 log10M
- Log10GI50 [11]: −8.01
- Log10GI50 [12]: −11.69
- Log10LC50 ([12]; MCF7 (Breast Cancer)): >−4.00 log10M
- Log10LC50 [13]: −4.45 log10M
- Log10TGI50 [13]: −4.90 log10M
- Log10GI50 [14]: −6.37
- Log10LC50 [14]: >−4.00 log10M
- Log10TGI50 [14]: >−4.00 log10M
- Log10LC50 ([15]; HL-60(TB) (Leukemia)): >−4.53 log10M
- Log10TGI50 ([15]; HL-60(TB) (Leukemia), TGI: PG=0): −4.53 log10M
- Log10GI50 [15]: −11.57
